Laboratory results: patent US20250120969A1, “METHODS AND COMPOSITIONS FOR TREATING INFLAMMATION INJURY IN THE LUNGS” (CalciMedica, Inc., priority 2022, published 2025)

Key:
human lymphocytes = assay: In vitro cytokine release in human lymphocytes; format: cell-based
From the text: (§1) Preclinical data supports the use of CRAC inhibitors (e.g. N-(5-(6-Chloro-2,2-difluorobenzo[d][1,3]dioxol-5-yl)pyrazin-2-yl)-2-fluoro-6-methylbenzamide, Compound 1) in severe COVID-19 pneumonia.

CRAC channels = CRAC channels (Homo sapiens, UniProt Q96D31); assay: CRAC channel inhibition
[1] = test system: patients with AP and accompanying SIRS plus hypoxemia; assay: Clinical and pharmacodynamic study in patients with acute pancreatitis, SIRS and hypoxemia; conditions: human, in vivo
[2] = test system: lung tissue cytokines and neutrophil infiltration; assay: Animal models of acute pancreatitis (AP) and lung injury; format: in vivo
From the text: as §1

CRAC channels, sequence (Q96D31 whole entry): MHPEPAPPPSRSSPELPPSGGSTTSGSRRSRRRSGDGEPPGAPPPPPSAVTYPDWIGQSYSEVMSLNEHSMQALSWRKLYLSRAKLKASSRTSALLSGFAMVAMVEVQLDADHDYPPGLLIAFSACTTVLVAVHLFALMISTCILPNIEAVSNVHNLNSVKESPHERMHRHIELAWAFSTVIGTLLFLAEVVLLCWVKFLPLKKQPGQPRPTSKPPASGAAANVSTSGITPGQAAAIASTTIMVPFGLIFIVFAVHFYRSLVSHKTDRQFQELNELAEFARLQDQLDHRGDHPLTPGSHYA

Cc1cccc(F)c1C(=O)Nc1cnc(-c2cc3c(cc2Cl)OC(F)(F)O3)cn1 [Compound 1, N-(5-(6-Chloro-2,2-difluorobenzo[d][1,3]dioxol-5-yl)pyrazin-2-yl)-2-fluoro-6-methylbenzamide]
Release of multiple cytokines (human lymphocytes): inhibits release of multiple cytokines
Inhibition of CRAC channels (CRAC channels): potent and selective
IL-6 levels in patients [1]: marked reduction in IL-6 levels
Respiratory dysfunction in patients [1]: beneficial effects on respiratory dysfunction
Cytokines and neutrophil infiltration in lung tissue [2]: inhibit cytokines and neutrophil infiltration in lung tissue
